Measured values taken from ChEMBL document CHEMBL4507289, “Data for DCP probe GSM1” (2021).
Calls of active or inactive are those of the source. The rule behind the calls is not given here.

Tests used:
[1] = target: Mitogen-activated protein kinase kinase kinase 12 (Homo sapiens) (UniProt Q12852); settings: Compound concentration 1000.0 nM
[2] = target: T1, Histamine H2 receptor (Homo sapiens, UniProt P25021); assay: GPCRScan assay: inhibition of H2; parameters: radioligand conc. used [nm] 0.02 – 0.05, parental cells Stable HEK
T1 sequence (P25021 whole entry): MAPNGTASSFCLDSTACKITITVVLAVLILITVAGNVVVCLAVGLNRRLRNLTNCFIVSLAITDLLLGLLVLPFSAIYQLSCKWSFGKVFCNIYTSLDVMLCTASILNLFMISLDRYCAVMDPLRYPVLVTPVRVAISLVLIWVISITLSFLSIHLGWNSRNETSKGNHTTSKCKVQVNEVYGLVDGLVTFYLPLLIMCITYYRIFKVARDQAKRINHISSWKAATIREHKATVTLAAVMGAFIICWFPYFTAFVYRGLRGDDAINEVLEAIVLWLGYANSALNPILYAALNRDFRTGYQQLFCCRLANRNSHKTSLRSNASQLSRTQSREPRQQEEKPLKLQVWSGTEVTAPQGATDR

[3] = target: Insulin-like growth factor 1 receptor (Homo sapiens) (UniProt P08069); settings: Compound concentration 1000.0 nM
[4] = target: Serine/threonine-protein kinase BRSK2 (Homo sapiens) (UniProt Q8IWQ3); settings: Compound concentration 1000.0 nM
[5] = target: Alpha-1D adrenergic receptor (Homo sapiens) (UniProt P25100); settings: Compound concentration 10.0 uM
[6] = target: T2, Sodium-dependent dopamine transporter (Homo sapiens, UniProt Q01959); assay: Dopamine-uptake assay
T2 sequence (Q01959 whole entry): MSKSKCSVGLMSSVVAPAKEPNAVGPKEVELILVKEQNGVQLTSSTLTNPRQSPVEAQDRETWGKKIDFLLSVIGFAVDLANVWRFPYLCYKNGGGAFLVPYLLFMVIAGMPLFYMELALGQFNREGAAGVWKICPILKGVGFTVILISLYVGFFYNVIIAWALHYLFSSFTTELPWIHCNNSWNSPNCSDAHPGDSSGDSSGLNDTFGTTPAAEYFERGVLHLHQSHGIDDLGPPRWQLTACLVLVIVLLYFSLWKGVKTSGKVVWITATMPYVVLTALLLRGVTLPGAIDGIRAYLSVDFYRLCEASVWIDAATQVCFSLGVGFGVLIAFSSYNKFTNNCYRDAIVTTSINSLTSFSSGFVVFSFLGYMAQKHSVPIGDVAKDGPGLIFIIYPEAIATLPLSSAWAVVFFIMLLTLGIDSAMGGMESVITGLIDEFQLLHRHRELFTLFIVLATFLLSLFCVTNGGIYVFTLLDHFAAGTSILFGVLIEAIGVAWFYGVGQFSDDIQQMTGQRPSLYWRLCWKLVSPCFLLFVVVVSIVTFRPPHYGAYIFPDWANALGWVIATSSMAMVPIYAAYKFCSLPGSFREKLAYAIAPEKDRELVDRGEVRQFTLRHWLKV

[7] = target: Dual specificity mitogen-activated protein kinase kinase 1 (Homo sapiens) (UniProt Q02750); settings: Compound concentration 1000.0 nM
Chain of Dual specificity mitogen-activated protein kinase kinase 1 (Homo sapiens) (Q02750 whole entry): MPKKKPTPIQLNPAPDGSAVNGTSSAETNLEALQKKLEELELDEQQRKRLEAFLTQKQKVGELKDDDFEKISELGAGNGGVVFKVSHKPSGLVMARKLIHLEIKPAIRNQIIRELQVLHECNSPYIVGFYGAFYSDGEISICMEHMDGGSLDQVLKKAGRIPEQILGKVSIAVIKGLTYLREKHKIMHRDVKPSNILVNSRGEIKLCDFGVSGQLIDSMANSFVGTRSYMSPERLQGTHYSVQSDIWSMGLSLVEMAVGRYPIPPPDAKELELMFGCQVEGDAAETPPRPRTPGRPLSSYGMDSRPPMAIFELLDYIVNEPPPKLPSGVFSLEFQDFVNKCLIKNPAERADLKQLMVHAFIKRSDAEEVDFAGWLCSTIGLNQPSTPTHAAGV

[8] = target: Beta-2 adrenergic receptor (Homo sapiens) (UniProt P07550); settings: Compound concentration 10.0 uM
[9] = target: T2, Sodium-dependent dopamine transporter; assay: GPCRScan assay: inhibition of DAT; parameters: radioligand conc. used [nm] 3.6 – 16.0, parental cells stable HEK
[10] = target: Sodium-dependent serotonin transporter (Homo sapiens, UniProt P31645); assay: Serotonin-uptake assay
[11] = target: Muscarinic acetylcholine receptor M2 (Homo sapiens) (UniProt P08172); settings: Compound concentration 10.0 uM
[12] = target: Citron Rho-interacting kinase (Homo sapiens) (UniProt O14578); settings: Compound concentration 1000.0 nM
[13] = target: Uncharacterized serine/threonine-protein kinase SBK3 (Homo sapiens) (UniProt P0C264); settings: Compound concentration 1000.0 nM
Chain of Uncharacterized serine/threonine-protein kinase SBK3 (Homo sapiens) (P0C264 whole entry): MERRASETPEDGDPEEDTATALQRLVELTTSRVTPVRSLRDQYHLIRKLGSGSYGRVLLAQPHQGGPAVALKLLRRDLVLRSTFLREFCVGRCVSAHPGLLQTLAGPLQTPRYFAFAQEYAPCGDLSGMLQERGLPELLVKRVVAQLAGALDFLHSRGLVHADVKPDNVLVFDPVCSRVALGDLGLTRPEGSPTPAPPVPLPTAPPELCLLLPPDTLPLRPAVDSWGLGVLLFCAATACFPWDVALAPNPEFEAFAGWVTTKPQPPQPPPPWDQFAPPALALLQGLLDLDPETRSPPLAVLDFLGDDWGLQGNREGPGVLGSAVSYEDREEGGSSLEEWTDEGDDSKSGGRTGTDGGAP

[14] = target: Serine/threonine-protein kinase ULK3 (Homo sapiens) (UniProt Q6PHR2); settings: Compound concentration 1000.0 nM
Chain of Serine/threonine-protein kinase ULK3 (Homo sapiens) (Q6PHR2 whole entry, the tested form may be a part): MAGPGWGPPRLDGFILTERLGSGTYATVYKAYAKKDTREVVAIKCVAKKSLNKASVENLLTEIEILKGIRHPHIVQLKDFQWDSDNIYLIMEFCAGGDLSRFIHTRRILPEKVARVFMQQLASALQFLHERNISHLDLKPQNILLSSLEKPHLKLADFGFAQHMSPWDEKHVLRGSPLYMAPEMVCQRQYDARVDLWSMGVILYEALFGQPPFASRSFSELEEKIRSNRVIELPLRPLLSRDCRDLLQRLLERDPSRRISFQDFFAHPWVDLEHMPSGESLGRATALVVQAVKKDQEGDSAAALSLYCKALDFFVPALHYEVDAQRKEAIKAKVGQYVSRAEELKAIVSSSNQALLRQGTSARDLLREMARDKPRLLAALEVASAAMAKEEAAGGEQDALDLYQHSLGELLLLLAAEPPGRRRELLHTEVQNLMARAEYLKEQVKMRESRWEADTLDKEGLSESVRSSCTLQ

[15] = target: LIM domain kinase 1 (Homo sapiens) (UniProt P53667); settings: Compound concentration 1000.0 nM
[16] = target: Muscarinic acetylcholine receptor M1 (Homo sapiens) (UniProt P11229); settings: Compound concentration 10.0 uM
[17] = target: Alpha-1A adrenergic receptor (Homo sapiens) (UniProt P35348); settings: Compound concentration 10.0 uM
[18] = target: Beta-3 adrenergic receptor (Homo sapiens) (UniProt P13945); settings: Compound concentration 10.0 uM
[19] = target: Sodium-dependent noradrenaline transporter (Homo sapiens, UniProt P23975); assay: GPCRScan assay: inhibition of NET; parameters: radioligand conc. used [nm] 1.3 – 5.0, parental cells stable HEK
[20] = target: Aurora kinase B (Homo sapiens) (UniProt Q96GD4); settings: Compound concentration 1000.0 nM
[21] = target: G protein-coupled receptor kinase 4 (Homo sapiens) (UniProt P32298); settings: Compound concentration 1000.0 nM
[22] = target: 5-hydroxytryptamine receptor 1E (Homo sapiens) (UniProt P28566); settings: Compound concentration 10.0 uM
[23] = target: Serine/threonine-protein kinase tousled-like 2 (Homo sapiens) (UniProt Q86UE8); settings: Compound concentration 1000.0 nM
[24] = target: T1, Histamine H2 receptor; settings: Compound concentration 10.0 uM
[25] = target: Myosin light chain kinase, smooth muscle (Homo sapiens) (UniProt Q15746); settings: Compound concentration 1000.0 nM
Chain of Myosin light chain kinase, smooth muscle (Homo sapiens) (Q15746 whole entry): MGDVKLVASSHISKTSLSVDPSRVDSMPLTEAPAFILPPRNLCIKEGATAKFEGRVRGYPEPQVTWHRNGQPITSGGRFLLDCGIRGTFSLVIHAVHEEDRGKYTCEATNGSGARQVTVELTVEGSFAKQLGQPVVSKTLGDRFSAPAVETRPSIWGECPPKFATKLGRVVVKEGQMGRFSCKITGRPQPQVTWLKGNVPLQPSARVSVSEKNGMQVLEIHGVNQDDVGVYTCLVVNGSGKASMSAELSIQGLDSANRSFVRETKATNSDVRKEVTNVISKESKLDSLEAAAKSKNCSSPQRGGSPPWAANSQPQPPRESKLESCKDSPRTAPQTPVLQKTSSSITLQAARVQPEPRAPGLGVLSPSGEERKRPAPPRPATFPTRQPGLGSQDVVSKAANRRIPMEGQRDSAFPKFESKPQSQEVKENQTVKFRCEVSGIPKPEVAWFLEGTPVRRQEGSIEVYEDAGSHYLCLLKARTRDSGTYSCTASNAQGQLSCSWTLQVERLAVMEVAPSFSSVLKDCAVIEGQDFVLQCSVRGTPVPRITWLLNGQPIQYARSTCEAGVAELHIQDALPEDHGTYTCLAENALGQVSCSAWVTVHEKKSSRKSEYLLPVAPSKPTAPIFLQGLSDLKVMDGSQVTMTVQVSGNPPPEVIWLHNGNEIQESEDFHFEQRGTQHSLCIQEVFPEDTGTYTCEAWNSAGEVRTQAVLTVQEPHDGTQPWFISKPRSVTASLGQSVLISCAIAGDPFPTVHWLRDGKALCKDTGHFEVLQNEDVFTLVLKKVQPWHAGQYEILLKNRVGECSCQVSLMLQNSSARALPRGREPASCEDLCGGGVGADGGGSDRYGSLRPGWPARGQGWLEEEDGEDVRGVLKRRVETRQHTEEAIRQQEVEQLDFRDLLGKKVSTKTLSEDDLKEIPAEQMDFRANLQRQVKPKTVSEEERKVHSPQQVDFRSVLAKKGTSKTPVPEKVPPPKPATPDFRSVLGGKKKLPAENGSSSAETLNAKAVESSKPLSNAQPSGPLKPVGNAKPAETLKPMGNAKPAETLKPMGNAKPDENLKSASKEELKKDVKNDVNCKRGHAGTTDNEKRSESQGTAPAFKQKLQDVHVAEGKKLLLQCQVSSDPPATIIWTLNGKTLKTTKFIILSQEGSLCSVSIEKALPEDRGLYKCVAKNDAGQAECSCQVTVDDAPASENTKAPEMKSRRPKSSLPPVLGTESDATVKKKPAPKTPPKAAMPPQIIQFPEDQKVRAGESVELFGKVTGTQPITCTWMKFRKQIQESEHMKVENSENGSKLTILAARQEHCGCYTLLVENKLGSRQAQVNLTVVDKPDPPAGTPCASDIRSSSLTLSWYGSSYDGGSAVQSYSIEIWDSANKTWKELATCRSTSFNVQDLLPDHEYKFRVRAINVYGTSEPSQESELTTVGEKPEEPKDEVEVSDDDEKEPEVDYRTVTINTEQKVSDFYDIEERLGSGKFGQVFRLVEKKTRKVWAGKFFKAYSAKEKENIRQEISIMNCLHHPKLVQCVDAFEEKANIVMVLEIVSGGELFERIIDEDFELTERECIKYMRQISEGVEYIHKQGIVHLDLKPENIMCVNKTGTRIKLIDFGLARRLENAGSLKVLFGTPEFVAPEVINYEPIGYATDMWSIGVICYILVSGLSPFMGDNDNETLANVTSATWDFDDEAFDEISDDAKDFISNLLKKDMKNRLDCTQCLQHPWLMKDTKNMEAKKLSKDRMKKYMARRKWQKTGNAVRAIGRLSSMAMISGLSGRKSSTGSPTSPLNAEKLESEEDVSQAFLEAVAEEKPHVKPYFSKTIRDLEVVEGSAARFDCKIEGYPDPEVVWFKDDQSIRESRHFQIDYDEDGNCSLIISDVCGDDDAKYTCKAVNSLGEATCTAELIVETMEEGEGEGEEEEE

[26] = target: Ephrin type-B receptor 3 (Homo sapiens) (UniProt P54753); settings: Compound concentration 1000.0 nM
[27] = target: Myosin light chain kinase 2, skeletal/cardiac muscle (Homo sapiens) (UniProt Q9H1R3); settings: Compound concentration 1000.0 nM
[28] = target: Alpha-1B adrenergic receptor (Homo sapiens) (UniProt P35368); settings: Compound concentration 10.0 uM
[29] = target: D(4) dopamine receptor (Homo sapiens, UniProt P21917); assay: GPCRScan assay: inhibition of D4; parameters: radioligand conc. used [nm] 0.6 – 1.7, parental cells Stable HEK
[30] = GPCRScan assay: inhibition of GABA/PBR; parameters: species or system Rattus norvegicus; radioligand conc. used [nm] 0.3 – 2.0, parental cells brain tissue
[31] = target: Alpha-1B adrenergic receptor (Homo sapiens, UniProt P35368); assay: GPCRScan assay: inhibition of Alpha1B; parameters: radioligand conc. used [nm] 0.3 – 1.0, parental cells stable HEK
[32] = target: Alpha-1A adrenergic receptor (Homo sapiens, UniProt P35348); assay: GPCRScan assay: inhibition of Alpha1A; parameters: radioligand conc. used [nm] 0.2 - 1.0, parental cells stable HEK
[33] = target: 5-hydroxytryptamine receptor 1D (Homo sapiens) (UniProt P28221); settings: Compound concentration 10.0 uM

Chain of Mitogen-activated protein kinase kinase kinase 12 (Homo sapiens) (Q12852 whole entry): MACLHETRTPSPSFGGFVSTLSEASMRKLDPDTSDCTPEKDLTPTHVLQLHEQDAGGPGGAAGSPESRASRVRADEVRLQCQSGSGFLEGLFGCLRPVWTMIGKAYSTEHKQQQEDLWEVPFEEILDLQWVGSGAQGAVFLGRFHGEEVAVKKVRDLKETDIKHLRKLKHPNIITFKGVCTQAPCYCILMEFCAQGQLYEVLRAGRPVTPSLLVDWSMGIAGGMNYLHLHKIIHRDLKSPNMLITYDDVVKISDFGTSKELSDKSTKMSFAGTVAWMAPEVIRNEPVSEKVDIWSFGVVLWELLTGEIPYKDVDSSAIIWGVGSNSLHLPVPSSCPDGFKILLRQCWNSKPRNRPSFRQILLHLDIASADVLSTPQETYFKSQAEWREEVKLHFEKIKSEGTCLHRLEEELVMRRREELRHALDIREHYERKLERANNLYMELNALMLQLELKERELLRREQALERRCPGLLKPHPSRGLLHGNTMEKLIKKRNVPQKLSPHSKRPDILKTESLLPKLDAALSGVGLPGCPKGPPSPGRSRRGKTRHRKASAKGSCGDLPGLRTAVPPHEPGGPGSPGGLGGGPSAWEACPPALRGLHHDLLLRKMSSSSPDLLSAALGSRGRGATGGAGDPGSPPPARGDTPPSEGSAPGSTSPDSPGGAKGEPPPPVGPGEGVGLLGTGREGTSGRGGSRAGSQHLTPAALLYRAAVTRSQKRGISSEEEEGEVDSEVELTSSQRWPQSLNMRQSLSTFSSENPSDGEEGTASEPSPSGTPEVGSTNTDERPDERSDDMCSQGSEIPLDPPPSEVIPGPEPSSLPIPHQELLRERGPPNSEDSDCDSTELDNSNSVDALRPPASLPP

Row | SMILES | residual activity [1] [%] | residual activity [3] [%] | residual activity [4] [%] | residual activity [7] [%] | residual activity [12] [%] | residual activity [13] [%] | residual activity [14] [%] | residual activity [15] [%] | residual activity [20] [%] | residual activity [21] [%] | residual activity [23] [%] | inhibition [24] [%] | residual activity [25] [%] | residual activity [26] [%] | residual activity [27] [%] | further results
1 | COc1cc(-c2cn([C@H]3CCc4c(F)cccc4N(CC(F)(F)F)C3=O)nn2)ccc1-n1cnc(C)c1 | 100 | 100 | 100 | 100 | 100 | 100 | 63 | 100 | 100 | 100 | 100 | 51.8 | 81 | 100 | 100 | Ki [2]: 975 nM; inhibition [5]: 2.11%; IC50 [6]: 536 nM (active); inhibition [8]: -5.61%; Ki ([9]; read-out: Ki): 191 nM; Ki ([9]; read-out: pKi (converted)): 200 nM; IC50 [10]: 13 nM (active); inhibition [11]: 14.4%; inhibition [16]: 8.88%; inhibition [17]: 14.1%; inhibition [18]: 15.8%; Ki [19]: 808 nM; inhibition [22]: -8.76%; inhibition [28]: 19.9%
2 | COc1cc(-c2cn([C@H]3CCc4ccccc4N(CC(F)(F)F)C3=O)nn2)ccc1-n1ccc(C)n1 | 100 | 100 | 97 | 100 | 100 | 92 | 61 | 100 | 89 | 100 | 97 | 4.13 | 80 | 100 | 73 | Ki [29]: 4950 nM; Ki [30]: 5070 nM; pKi [30]: 5.36; Ki [31]: 10000 nM; Ki [32]: 1390 nM; inhibition [33]: 11.3%
